Measurements as given in a melting point compilation (Tetko et al.; mined from patent text by program, amines drawn as free bases though some values may be those of a salt).

Compound	melting point
CCc1ccc(C2=NC(C)(C(C)C)C(=O)N2CC=CC(=O)O)nc1 (centres undefined)	53 to 58 °C
CC(C)(C)C(O)(COc1ccccc1)c1cccnc1 (centres undefined)	89 to 90.5 °C
CCOC(=O)C1=C(C(=O)OCC)C(c2cccc([N+](=O)[O-])c2)C(C(=O)OCC)=C(C(=O)OCC)N1	121 to 124 °C
CC(=O)N[C@@H](c1ccccc1)[C@@H](O)C(=O)OC(C)C	104 to 106 °C
CC(C)(C)OC(=O)[C@@H]1CCCN1C(=O)C=CC(F)(F)F	119 to 120 °C
CCOP(=O)(OCC)C(CSC(OC(C)=O)OC(=O)N1CCN(c2cc3c(cc2F)c(=O)c(C(=O)O)cn3CC)CC1)P(=O)(OCC)OCC (centres undefined)	89 to 90 °C
CC(C(N)=O)c1ccc(Oc2ccc(F)cc2F)cc1 (centres undefined)	107 to 110 °C
S=C(Cc1ccc(Cl)cc1)N1CCOCC1	175 to 177 °C
CSc1ncc(Cc2ccccn2)c(=O)[nH]1	195 to 198 °C
CCn1nc(-c2nc(C(=O)O)c(NCc3ccc(OC)cc3)nc2-c2ccccc2)ccc1=O	> 250 °C
O=C(O)CCCCCCC=Cc1cccs1	45 to 46 °C
COCC(=S)Nc1c(Cl)c(Cl)cc2nc(OC)c(OC)nc12	198 to 200 °C
CCOCc1nc2cnc3ccccc3c2n1CCCCC(N)=O	157 to 158 °C
Cn1c(C2CC2)nc2c1CCCC2=O	108 °C
O=C1CCc2c1cccc2-c1ccc(C(F)(F)F)cc1	75 to 78 °C
COCC(=O)Nc1cc(C#N)cc(NC(=O)COC)c1Cl	173 to 174 °C
COc1cccc(C(F)(F)F)c1S(=O)(=O)NC(=O)Nc1nc(C)cc(C)n1	190 °C
O=Cc1cccn2cc(C(F)(F)F)nc12	98 to 100 °C
Nc1cc(I)cc(CF)c1	48.5 to 50 °C
C[Si](C)(C)c1c(Br)cnc2c1CCO2	92 to 94 °C
Cc1nc(C(=O)N(C)C)c2n1-c1ccc(Cl)cc1C(c1ccccc1F)=NC2	158 to 160 °C
CCCn1c(=O)c2[nH]c(-c3cc(C)n(CC(=O)Nc4ccc(OC)cc4)n3)nc2n(CCC)c1=O	293 to 296 °C

Compound	melting point
N#Cc1cnc(N)nc1-c1ccc(Cl)cc1C1(c2ccccc2F)OCC(CCl)O1 (centres undefined)	184 to 191 °C
c1ccc2c(CCCc3nccc4ccccc34)nccc2c1	96 to 97 °C
CCCCn1c(=O)[nH]c(C(F)(F)F)c(Cl)c1=O	138 to 139 °C
CCCC[Si](C)(C)CCSCCCNC(=O)n1cc(F)c(=O)[nH]c1=O	83.5 to 84 °C
O=C1OC(=O)c2c(F)cc(F)cc21	87 to 89 °C
COC(=O)NC1CCc2c(ccc(OC)c2OC)C1 (centres undefined)	109 to 111 °C
O=C(O)C(=O)CC(=O)c1ccn(Cc2ccccc2)c1	151 to 152 °C
CC#CCOc1ccc(OCC(=O)O)cc1	114 to 116 °C
COC(=O)CC[C@H](NC(=O)OC(C)(C)C)C(=O)O	74 to 77 °C
CC1=C(c2ccccc2)C(c2ccccc2Cl)C([N+](=O)[O-])=C(C)N1 (centres undefined)	232 °C
COc1cc2c(c3c1OC(C)(C)C3)C(c1ccc(NS(C)(=O)=O)cc1)=NC(C)(C)C2	235 to 237 °C
Cc1cc(=O)c(C(=O)NS(C)(=O)=O)nn1-c1ccc(Cl)cc1	225 to 227 °C
OC(CNC1CCc2ccccc2C1)COc1cccc2c1CCCC2 (centres undefined)	90 to 93 °C
CCOC(=O)c1cc2cc(-c3ccccc3OC)ccc2nn1	143 to 145 °C
COc1ccc(C(CC2=NN(C)C(=O)C2)c2ccccc2)cc1OC1CCCC1 (centres undefined)	105 to 108 °C
CCCCN1C=CC(N2CCC(F)(c3ccccc3)C(Cl)C2=O)=CC1 (centres undefined)	137 °C
CC(Sc1cnn(C(C)(C)C)c(=O)c1Cl)c1ccc(C(C)(C)C)cc1 (single isomer, unassigned; (+))	102 to 104 °C
O=c1c2cccc(O)c2nc(-c2ccc(OCCN3CCCCC3)cc2)n1-c1ccc(O)cc1	153 to 155 °C
C[C@H]1C(=O)N[C@@H](Cc2c[nH]c3ccccc23)C(=O)N1OCc1ccccc1	172 to 174 °C
COc1cc(CC2SC(N3CCCC3)=NC2=O)cc(-c2ccc(O)c(C3(C)CCCCC3)c2)c1 (centres undefined)	88 to 91 °C
CN(C)Cc1csc(N(C)CC#CI)n1	98 to 100 °C
COC(=O)C1CN1C(c1ccccc1)(c1ccccc1)c1ccccc1 (centres undefined)	127 to 128 °C

Compound	melting point
C=CCCCCCCCCOC(=O)C=Cc1ccccc1O	58 °C
Cc1nn(-c2cc(Oc3ccc([N+](=O)[O-])cc3)c(Cl)cc2Cl)c(=O)n1C(F)F	99 to 101 °C
COc1ccc2c3c1CCCN3C(C)(C)C=C2C	87 to 88 °C
FC(F)(F)c1cccc(-n2cnnc2Oc2ccccc2)c1	83 to 85 °C
CC(C)(C)OC(=O)N1CCOC[C@H]1CC(=O)O	82 °C
O=S(=O)(Cl)c1ccc(CCc2ccccc2)cc1	90 to 95 °C
CNn1c(N(C)C)n[nH]c1=O	129 °C
CC(C)[C@@H](NS(=O)(=O)N1CCC(Oc2ccc(Cl)cn2)CC1)C(=O)NO	97 to 98.4 °C
O=C1CC[C@@H](CI)N1Cc1ccccc1	92 to 94 °C
NC(c1ncn(N)n1)C1CCN(CC2COc3ccccc3O2)CC1 (centres undefined)	157 to 158 °C
N#Cc1ccc(NCc2ccccc2)nc1	133 to 134 °C
COc1c(CN2CCNC2=C[N+](=O)[O-])cc(C)nc1[N+](=O)[O-]	177 to 181 °C
CCOc1ccc(S(=O)(=O)N2CCN(C)CC2)cc1C#N	130 to 131 °C
O=C1c2ccccc2C(=O)N1CCCOc1cccc([N+](=O)[O-])c1	149 to 152 °C
C[C@H](NC(=O)c1c[nH]c2ncc(-c3cn(-c4cccc(C(F)(F)F)c4)cn3)nc12)C(C)(C)C	332 to 333 °C
Fc1ccc2[nH]c(SCC(F)(F)F)nc2c1	136 to 139 °C
Cn1nc(-c2cccc(C(F)(F)F)c2)c(Cl)c1C(=O)O	180 to 183 °C
CCCCNC(=O)n1cc[nH]c1=S	66 to 68 °C
COC(=O)C1Cc2c([nH]c3ccccc23)C(c2c(Cl)cccc2Cl)N1 (centres undefined)	102 to 105 °C
N#Cc1cc(C#N)c(-c2ccc(Cl)cc2)[nH]1	235 to 240 °C

Second part, the compound after the results:

melting point	Compound
226 °C	CC(=O)Nc1ccc([N+](=O)[O-])s1
91 to 92 °C	C=CCNc1nc(NC(C)CC)c2scc(C)c2n1 (centres undefined)
72 to 74 °C	Cc1ccc(NC(=O)C(F)(F)F)cc1C(F)(F)F
30 to 33 °C	CCCCc1ccc(N)nc1
200 to 202 °C	Cn1ncc(NCCCN2CCC(c3noc4cc(F)ccc34)CC2)c(Cl)c1=O
87 to 88.5 °C	FC(F)(F)Sc1c(-c2ccc(Cl)cc2)[nH]c(C(F)(F)F)c1Br
66 °C	Brc1csc(N2CCCCC2)n1
153 to 155 °C	Nc1ncc2ncn([C@@H]3C[C@H](O)[C@@H](O)[C@H]3O)c2n1 (racemic)
> 250 °C	Cc1cc(C(=O)O)ccc1C(N)C(=O)O (centres undefined)
169 to 171 °C	CCN(CC)c1nc(-c2ccncc2)nc2sc(C#N)c(C)c12
151 to 152 °C	Cn1cc(C(=O)NCc2ccc(Cl)cc2)c(=O)c2cc(CCCCCO)oc21
175 to 176 °C	CC1(C)CCC(C)(C)c2cc(C(N)C(=O)NCS(=O)(=O)c3ccccc3)ccc21 (centres undefined)
327 to 329 °C	NC(=O)CCn1c2ccc(O)cc2c2c3c(c(-c4c(Cl)cccc4Cl)cc21)C(=O)NC3=O
199 to 201 °C	COc1ccc(CN2C(=O)C(O)(c3cc4c(C)noc4cc3O)c3ccccc32)cc1 (centres undefined)
76.5 to 77.5 °C	CC(=O)OCC1=C(c2ccccc2)C(=O)N(C(C)(C)C(=O)Nc2cccc(C(F)(F)F)c2)CO1
179 to 182 °C	COC(=O)c1cscc1NC(=O)COc1ccc(Cl)c(Cl)c1
88 to 90 °C	COC=C(C(=O)OC)c1ccccc1CBr
193 °C	Cc1cc(C(F)(F)F)nn1CC(=O)N1CCC(c2nc(NC(=O)Nc3ccccc3)cs2)CC1
208 °C	O=Cc1ccc(C=CC(=O)N2CCc3c([nH]c4ccccc34)C2c2ccc3c(c2)OCO3)cc1 (centres undefined)
233 °C	O=C(O)c1cnn2c(C(F)F)cc(-c3ccc(C(F)(F)F)c(F)c3)nc12

melting point	Compound
184 °C	Nc1nc2ccccc2c2c1ncn2CCOC/C=C/c1ccccc1
189 to 190 °C	CN(CC(=O)OC(C)(C)C)c1cncc(-c2nc(=O)c3ccccc3s2)n1
146 to 147 °C	Cc1oc(-c2ccccc2)nc1CCOc1ccc(C[C@@H](C(=O)O)n2ccc(-c3ccccc3)c2)cc1
140 to 142 °C	CC(=O)Nc1c(C(=O)c2ccccc2C)[nH]c2cc(Cl)ccc12
62 to 64 °C	COC1(c2cc(F)cc(Sc3ccc(Cc4ccc(F)cc4)cc3)c2)CCOCC1
253 to 255 °C	NS(=O)(=O)c1ccc(-c2cnn(Cc3ccc(F)c(F)c3)c(=O)c2-c2ccc(F)cc2)cc1
150 °C	COc1ccc(CN(C)CCCOc2ccc(NC(=O)c3cccc4c(=O)c5cccc(F)c5[nH]c34)cc2)cc1OC
192 to 194 °C	CS(=O)(=O)c1ccc(-c2cnn(-c3ccc(F)c(F)c3)c(=O)c2Oc2ccc(Cl)cc2)cc1
> 275 °C	Oc1nc2c(Cl)nc3ccccc3c2n1CC1CCOCC1
233 to 235 °C	Nc1nc2ccccc2c2c1ncn2CCSc1ccccc1
236 to 239 °C	COc1ccc(-c2ccc3c(C(=O)c4ccn5c4C(C)(C)SC5c4cccnc4)c[nH]c3c2)cc1 (centres undefined)
165 to 169 °C	O=C1CC2(CCCC2)CC(=O)N1CCCCN1CCN(C(c2ccc(F)cc2)c2ccc(F)cc2)CC1
109 to 111 °C	COc1ccccc1Cc1nc2ccccc2c(=O)n1CCCl
140 to 142 °C	Cn1cc2c([C@@H]3C[C@H]3CNC(=O)c3ccc(Br)cc3)cccc2n1
172 to 174 °C	CC(C)(C)c1ccc2oc(-c3ccc(O)cc3)cc2c1
111 to 118 °C	CC(C)CS(=O)c1ccc(N)c([N+](=O)[O-])c1 (centres undefined)
206 to 208 °C	Nc1nc(N)c2nc(N)n(COC(CO)CO)c2n1
123 to 125 °C	CCCOC1=C(c2ccccc2)C(CCC(=O)O)OC1=O (centres undefined)
167 to 168 °C	C=C(c1ccc(C(=O)OC)cc1)c1cc2c(cc1C)C(C)(C)CCC2(C)C
146 to 147 °C	CC(C)(C)COC(=O)N1CC2CC(CN(CC(O)COc3ccc(C#N)cc3)C2)C1 (centres undefined)
